Laboratory results: patent US12180187B2, “1-phenyl-5-azinylpyrazolyl-3-oxyalkyl acids and their use for controlling unwanted plant growth” (BAYER AKTIENGESELLSCHAFT, priority 2019, dated 2024)

Assays:
[1] = system: VIOTR; assay: Pre-emergence action at 320 g/ha against VIOTR; assay type: in vivo, Viola tricolor; conditions: dosage 320 g/ha
Outline: (§1)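 Percent herbicidal activity was assessed by eye roughly three weeks post-application, comparing with untreated plants. Treatment consisted of applying formulated compound in water plus 0.5% additive to covering soil at 600 l/ha before emergence.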

[2] = system: STEME; assay: Post-emergence action against STEME, 1.28 kg/ha; assay type: in vivo, Stellaria media; conditions: dosage 1280 g/ha, visual rating about 3 weeks after treatment vs untreated controls (100% = plants died)
Outline: (§2)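 Greenhouse-grown weeds (sandy loam, twin-sown pots) were treated 2–3 weeks post-sowing at one leaf. The spray was an aqueous WP/EC preparation plus 0.5% additive, applied at 600 L/ha. Scoring was visual at ~3 weeks, 0–100% versus untreated controls.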

[3] = system: ABUTH; assay: Post-emergence action against ABUTH, 1.28 kg/ha; assay type: in vivo, Abutilon theophrasti; conditions: dosage 1280 g/ha, visual rating about 3 weeks after treatment vs untreated controls (100% = plants died)
Outline: as §2

[4] = system: AMARE; assay: Post-emergence action against AMARE, 1.28 kg/ha; assay type: in vivo, Amaranthus retroflexus; conditions: dosage 1280 g/ha, visual rating about 3 weeks after treatment vs untreated controls (100% = plants died)
Outline: as §2

[5] = system: DIGSA; assay: Pre-emergence action against DIGSA, 1280 g/ha; assay type: in vivo, Digitaria sanguinalis; conditions: visual scoring after about 3 weeks vs untreated controls, 100% = plants have died, 0% = like control plants
Outline: (§3)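 Pre-emergence pot test: seeds in sandy loam, soil-covered, sprayed on soil surface (WP/EC, 0.5% additive, 600 L/ha water); greenhouse ~3 wk; visual % effect vs untreated, 0–100%.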

[6] = system: KCHSC; assay: Post-emergence action against KCHSC, 1.28 kg/ha; assay type: in vivo, Bassia scoparia; conditions: dosage 1280 g/ha, visual rating about 3 weeks after treatment vs untreated controls (100% = plants died)
Outline: as §2

[7] = system: ALOMY; assay: Pre-emergence action against ALOMY, 1280 g/ha; assay type: in vivo, Alopecurus myosuroides; conditions: visual scoring after about 3 weeks vs untreated controls, 100% = plants have died, 0% = like control plants
Outline: as §3

[8] = system: ECHCG; assay: Post-emergence action at 320 g/ha against ECHCG; assay type: in vivo, Echinochloa crus-galli; conditions: dosage 320 g/ha, visual rating about 3 weeks after treatment vs untreated controls (100% = plants died)
Outline: (§4)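 Herbicidal effect is scored by eye about 3 weeks after a foliar spray and expressed as percent activity, with untreated plants as 0% and dead plants as 100%. Treatment is applied at the one-leaf stage of greenhouse-grown, soil-sown plants, at a water rate of 600 l/ha containing 0.5% additive.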

[9] = system: ECHGC; assay: Pre-emergence action at 320 g/ha against ECHGC; assay type: in vivo, Echinochloa crus-galli; conditions: visual scoring after about 3 weeks vs untreated controls
Outline: as §1

[10] = system: VERPE; assay: Pre-emergence action against VERPE, 1280 g/ha; assay type: in vivo, Veronica persica; conditions: scored visually after about 3 weeks vs untreated controls (100% = plants have died)
Outline: as §3

[11] = system: AVEFA; assay: Post-emergence action at 320 g/ha against AVEFA; assay type: in vivo; conditions: visual rating about 3 weeks after treatment vs untreated controls
Outline: as §4

[12] = system: PHBPU; assay: Post-emergence action at 320 g/ha against PHBPU; assay type: in vivo; conditions: visual rating about 3 weeks after treatment vs untreated controls
Text: (§5) Accordingly, the compounds of the invention have good herbicidal action against a broad spectrum of weed grasses and broad-leaved weeds and are therefore suitable for controlling unwanted vegetation by the post-emergence method. • b) Seeds of monocotyledonous and dicotyledonous weeds and crop plants are placed in sandy loam in plastic or organic planting pots, covered with soil and cultivated in a greenhouse under controlled growth conditions. 2 to 3 weeks after sowing, the test plants are treated at the one-leaf stage. The compounds of the invention, formulated in the form of wettable powders (WP) or as emulsion concentrates (EC), are then sprayed onto the green parts of the plants as aqueous suspension or emulsion with addition of 0.5% additive at a water application rate of 600 l/ha (converted). After the test plants have been kept in the greenhouse under optimum growth conditions for about 3 weeks, the activity of the preparations is rated visually in comparison to untreated controls. For example, 100% activity=the plants have died, 0% activity=like control plants. Tables 39 to 49 below show the effects of selected compounds of the general formula (I) according to Tables 1 and 2 on various harmful plants and at an application rate corresponding to 320 g/ha, which were obtained by the experimental procedure mentioned above.

[13] = system: AMARE; assay: Post-emergence action at 320 g/ha against AMARE; assay type: in vivo, Amaranthus retroflexus; conditions: visual rating about 3 weeks after treatment vs untreated controls
Text: as §5

[14] = system: KCHSC; assay: Pre-emergence action against KCHSC, 1280 g/ha; assay type: in vivo, Bassia scoparia; conditions: scored visually after about 3 weeks vs untreated controls (100% = plants have died)
Outline: as §3

Compound | Pre-emergence action against VIOTR in % [1] | Post-emergence action against STEME [2] | Post-emergence action against ABUTH [3] | Post-emergence action against AMARE [4] | Pre-emergence action against DIGSA [5] | Post-emergence action against KCHSC [6] | Pre-emergence action against ALOMY [7] | Post-emergence action at 320 g/ha against ECHCG in % [8] | Pre-emergence action against ECHGC in % [9] | Pre-emergence action against VERPE [10] | Post-emergence action against AVEFA in % [11] | Post-emergence action against PHBPU in % [12] | Post-emergence action against AMARE in % [13] | Pre-emergence action against KCHSC [14]
CCOC(=O)C(C)Oc1nn(-c2ccccc2F)c(-c2ccc(F)nc2)c1C(F)(F)F (centres unmarked) [VII-066] | 100% | 100% | 90% | 90% | 100% | 90% | 100% | 80% | 90% | 100% | – | – | – | –
O=C(COc1nn(-c2ccccc2F)c(-c2ccc(F)nc2)c1Br)OCC1CCOC1 (centres unmarked) [VII-091] | 100% | 90% | 90% | 90% | 100% | – | 100% | – | – | 100% | 80% | – | – | –
O=C(COc1nn(-c2ccccc2F)c(-c2ccc(F)nc2)c1Br)OCC1OCCO1 [VII-103] | 100% | – | – | 90% | 100% | – | 100% | 80% | 80% | 100% | 80% | 80% | – | –
COC(=O)[C@H](C)Oc1nn(-c2cc(F)ccc2F)c(-c2ccc(F)nc2)c1Br [VII-107] | 100% | 100% | 90% | 100% | 100% | – | 90% | 80% | – | 100% | – | – | – | –
CCOC(=O)COc1nn(-c2ccccc2F)c(-c2ccc(F)nc2)c1C [VII-117] | 100% | – | – | 100% | 100% | – | 100% | – | 90% | 100% | 90% | – | – | –
COC(=O)[C@@H](C)Oc1nn(-c2cc(F)ccc2F)c(-c2cncc(F)c2)c1Br [VII-132] | 100% | – | 90% | 100% | 100% | 100% | 100% | 80% | 90% | 100% | 80% | 90% | 90% | 100%
COC(=O)[C@@H](C)Oc1nn(-c2cc(F)ccc2F)c(-c2cncc(F)c2)c1C#N [VII-147] | 100% | 100% | 90% | 100% | 100% | 90% | 100% | 80% | 100% | 100% | 80% | 90% | – | 100%
